Where only a bound is given, the exact number is not on record here.

One experiment concerns the target T1, human EHMT2 913-1193 (Homo sapiens, UniProt Q96KQ7).
T1 sequence (Q96KQ7 913-1193): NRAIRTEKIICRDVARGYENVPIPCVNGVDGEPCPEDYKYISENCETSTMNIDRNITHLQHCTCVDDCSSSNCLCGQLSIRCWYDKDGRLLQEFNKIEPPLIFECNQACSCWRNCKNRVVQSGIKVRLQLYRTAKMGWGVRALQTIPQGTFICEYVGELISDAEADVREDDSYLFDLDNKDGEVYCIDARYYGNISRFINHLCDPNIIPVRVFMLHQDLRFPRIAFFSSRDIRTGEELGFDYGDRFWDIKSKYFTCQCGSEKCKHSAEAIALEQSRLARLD
The experiment can be described thus: EHMT2 enzyme assay on histone peptide substrate (3H-SAM SPA). The settings on record: EHMT2 IC50, recombinant human EHMT2 913-1193, histone peptide substrate.

For another experiment, the system named is H3K9me2 in HCT116 cells. Description: HCT116 H3K9me2 in-cell western assay. The settings on record: Homo sapiens, HCT-116, 72 h, HCT116 cells, 72 hours incubation; read-out: H3K9me2 ICW IC50. Type of experiment: cell-based. An excerpt: HCT116 cell line was purchased from ATCC (Manassas, VA, USA). […] Penicillin-Streptomycin and heat inactivated fetal bovine serum were purchased from Hyclone (Logan, UT, USA). DPBS, Corning^R were purchased from VWR (Radnor, PA, USA). Triton′ X-100 was purchased from Sigma (St. Louis, MO, USA). Intercept blocking buffer, DRAQ5, Licor Odyssey Infrared Scanner were purchased from Licor Biosciences (Lincoln, NB, USA). Plate washer was purchased from BioTek (Winooski, VT, USA). […] 16% Paraformaldehyde was purchased from Electron Microscopy Sciences (Hatfield, PA, USA). HCT116 cells were maintained in complete growth medium (RPMI supplemented with 10% heat inactivated fetal bovine serum, 1% Penicillin-Streptomycin) and cultured at 37° C. under 5% CO2. N^2-(4-methoxy-3-(3-(pyrrolidin-1-yl)propoxy)phenyl)-N^4,6-dimethyl]pyrimidine-2,4-diamine (synthesis disclosed in International Application WO2017181177A1) was used as a control compound.
HCT116 cells (ATCC) were trypsinized, counted and seeded in assay medium (RPMI supplemented with 10% heat inactivated fetal bovine serum, 1% Penicillin-Streptomycin) at a concentration of 2,000 cells per well to a 384-well cell culture plate with compounds in 50 μl per well. Plates were incubated with at 37° C. under 5% CO2 for 72 hours. After the incubation, 50 μl per well of 8% paraformaldehyde in PBS was added to the plates and incubated at room temperature for 20 minutes. Plates were transferred to a BioTek (EL406) plate washer and washed 5 times with 110 μl per well of wash buffer (1×PBS containing 0.1% Triton X-100). The plates were next blocked with 50 μl of Intercept blocking buffer for 1 hour at room temperature. Blocking buffer was removed and 30 μl per well of monoclonal primary antibody of H3K9me2 (CST) diluted 1:200 in Intercept blocking buffer were added and plates were incubated overnight at 4° C. The plates were then washed 5 times with 110 μl per well of wash buffer (1×PBS containing 0.1% Triton X-100). Next 30 μl per well of secondary was added (1:400 800 CW goat anti-rabbit IgG in blocking buffer) with 1:1000 DRAQ5 in blocking buffer and incubated for 2 hours at room temperature. The plates were washed 5 times with 110 μl per well of wash buffer (1×PBS containing 0.1% Triton X-100) then with 100 μl per well of water once. Plates were allowed to dry at room temperature then imaged on a Licor Odyssey Infrared Scanner which measured integrated intensity at 700 nm and 800 nm wavelength. Both 700 and 800 channels were scanned.
The average of the ratio values (800 nm/700 nm) for each well was calculated and used to determine the percentage for each test well in the plate. Compounds were serially diluted two-fold in 0.1% DMSO for a total of 10 test concentrations beginning at 10 μM. IC50 curves were generated using duplicate wells per concentration of compound. […] IC50 values were calculated using a non-linear regression of Prism.

The next experiment deals with T2, human EHMT1 982-1266 (Homo sapiens, UniProt Q9H9B1).
T2 sequence (Q9H9B1 982-1266): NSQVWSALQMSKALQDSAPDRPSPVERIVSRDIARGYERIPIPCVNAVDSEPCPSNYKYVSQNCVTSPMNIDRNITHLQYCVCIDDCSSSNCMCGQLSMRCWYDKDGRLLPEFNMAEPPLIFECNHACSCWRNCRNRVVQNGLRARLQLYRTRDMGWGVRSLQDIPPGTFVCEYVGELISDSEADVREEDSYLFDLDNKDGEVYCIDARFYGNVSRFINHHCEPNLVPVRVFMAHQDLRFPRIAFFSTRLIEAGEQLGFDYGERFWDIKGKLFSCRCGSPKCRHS
The experiment can be described thus: EHMT1 enzyme assay on histone peptide substrate (3H-SAM SPA). The settings on record: EHMT1 IC50, recombinant human EHMT1 982-1266, histone peptide substrate.

With `[2H]C([2H])([2H])Nc1cc(C)nc(Nc2cc3c(c(C4=CCNCCC4)c2)OCCO3)n1` [Compound 283], the half-maximal inhibitory concentration (IC50) on human EHMT2 913-1193, with H3K9me2 in HCT116 cells and at human EHMT1 982-1266 was less than 0.1 µM throughout.
With `CNc1cc(C2CCCCC2)nc(Nc2cc3c(c(OCCCN4CCCC4)c2)OCC3)n1` [Compound 104, 6-cyclohexyl-N4-methyl-N2-[7-(3-pyrrolidin-1-ylpropoxy)-2,3-dihydrobenzofuran-5-yl]pyrimidine-2,4-diamine], the IC50 at human EHMT2 913-1193, with H3K9me2 in HCT116 cells and at human EHMT1 982-1266 was more than 2 µM in each case.
As to `[2H]C([2H])([2H])CNc1cc(C)nc(Nc2cc3c(c(C4=CCN(C)CCC4)c2)OCCO3)n1` [Compound 272], the IC50 on human EHMT2 913-1193 is 0.5 to 2 µM; with H3K9me2 in HCT116 cells it was 0.1 to 0.5 µM; on human EHMT1 982-1266 it was 0.1 to 0.5 µM.
For the molecule `CNc1nc(Nc2cc3c(c(C4=CCNCCC4)c2F)OCC3)nc(C)c1OC` [Compound 194], the IC50 was 0.1 to 0.5 µM on human EHMT2 913-1193, less than 0.1 µM in the experiment with H3K9me2 in HCT116 cells and less than 0.1 µM on human EHMT1 982-1266.
For `CNc1cc(Nc2cc3c(c(C4=CCN(C)CCC4)c2F)OCC3)nc(C)c1F` [Compound 255], the IC50 on human EHMT2 913-1193, in the experiment on H3K9me2 in HCT116 cells and on human EHMT1 982-1266 was less than 0.1 µM in each case.
For `[2H]Cc1cc(NC)nc(Nc2cc3c(c(C4=CCN(C)CCC4)c2)OCO3)n1` [Compound 265], the IC50 at human EHMT2 913-1193, in the experiment on H3K9me2 in HCT116 cells and at human EHMT1 982-1266 was less than 0.1 µM throughout.
Regarding `CNc1cc(C)nc(Nc2cc3c(c(C4=CCC(N)CC4)c2)OCC3)n1` (stereo not drawn) [Compound 148, N2-[7-(4-aminocyclohexen-1-yl)-2,3-dihydrobenzofuran-5-yl]-N4,6-dimethyl-pyrimidine-2,4-diamine], the figures for the IC50 at human EHMT2 913-1193, in the experiment with H3K9me2 in HCT116 cells and at human EHMT1 982-1266 were more than 2 µM, 0.5 to 2 µM and 0.5 to 2 µM, respectively.
Regarding `CNc1cc(C2CC2)nc(Nc2cc3c(c(C4=CCNCCC4)c2)OCC3)n1` [Compound 317], the results for the IC50 on human EHMT2 913-1193, in the experiment on H3K9me2 in HCT116 cells and on human EHMT1 982-1266 were 0.1 to 0.5 µM, less than 0.1 µM and less than 0.1 µM, respectively.
Turning to `CNc1cc(C)nc(Nc2cc3c(c(N4C[C@H]5CNC[C@H]5C4)c2)OCCC3)n1` [Compound 338], the IC50 at human EHMT2 913-1193 lay in the range of 0.5 to 2 µM; in the experiment on H3K9me2 in HCT116 cells, 0.1 to 0.5 µM; on human EHMT1 982-1266, 0.1 to 0.5 µM.
As to `CNc1cc(Nc2cc3c(c(C4=CCN(C)CCC4)c2F)OCO3)nc(C)c1F` [Compound 208], the IC50 on human EHMT2 913-1193, with H3K9me2 in HCT116 cells and at human EHMT1 982-1266 was 0.1 to 0.5 µM in each case.
Consider `Cc1cc(NC2CCCCC2)nc(Nc2cc3c(c(OCCCN4CCCC4)c2)OCC3)n1` [Compound 117, N4-cyclohexyl-6-methyl-N2-[7-(3-pyrrolidin-1-ylpropoxy)-2,3-dihydrobenzofuran-5-yl]pyrimidine-2,4-diamine], for which the concentration for half-maximal inhibition (IC50) on human EHMT2 913-1193 is more than 2 µM; in the experiment with H3K9me2 in HCT116 cells, more than 2 µM; on human EHMT1 982-1266, 0.5 to 2 µM.
On to `CNc1cc(C)nc(Nc2cc3c(c(C4=CC(C)NCCC4)c2F)OCC3)n1` (stereo not drawn) [Compound 206], for which the figures for the IC50 on human EHMT2 913-1193, in the experiment with H3K9me2 in HCT116 cells and at human EHMT1 982-1266 were 0.1 to 0.5 µM, less than 0.1 µM and less than 0.1 µM, respectively.
Regarding `CCc1cc(NC)nc(Nc2cc3c(c(C4=CCNCCC4)c2)OCC3)n1` [Compound 319], the 50% inhibitory concentration (IC50) at human EHMT2 913-1193, in the experiment with H3K9me2 in HCT116 cells and on human EHMT1 982-1266 was less than 0.1 µM throughout.
On to `[2H]Cc1nc(Nc2cc3c(c(C4=CCNCCC4)c2F)OCC3)nc(NC)c1F` [Compound 235], for which the IC50 on human EHMT2 913-1193, in the experiment on H3K9me2 in HCT116 cells and at human EHMT1 982-1266 was less than 0.1 µM in each case.
As for `COCCCNc1cc(C)nc(Nc2cc3c(c(C4=CCN(C)CCC4)c2)OCC3)n1` [Compound 298], the half-maximal inhibitory concentration (IC50) is 0.1 to 0.5 µM on human EHMT2 913-1193, 0.1 to 0.5 µM with H3K9me2 in HCT116 cells and less than 0.1 µM at human EHMT1 982-1266.
As to `CNc1cc(C)nc(Nc2cc3c(c(C4C[C@H]5CNC[C@H]5C4)c2)OCCC3)n1` (stereo partly drawn) [Compound 340], the 50% inhibitory concentration (IC50) is 0.1 to 0.5 µM on human EHMT2 913-1193, 0.1 to 0.5 µM in the experiment on H3K9me2 in HCT116 cells and less than 0.1 µM on human EHMT1 982-1266.
Regarding `CNc1cc(C)nc(Nc2cc3c(c(C4=C[C@@H](C)NCCC4)c2F)OCC3)n1` [Compound 182], the IC50 is 0.1 to 0.5 µM on human EHMT2 913-1193, less than 0.1 µM in the experiment with H3K9me2 in HCT116 cells and less than 0.1 µM on human EHMT1 982-1266.

(Values after patent US20240368139A1, “NOVEL MODULATORS OF EHMT1 AND EHMT2 AND THERAPEUTIC USE THEREOF” (Tango Therapeutics, Inc., priority 2021, published 2024).)
